Measurements: paper PMC11089505, “Structural Elucidation and Antiviral Activity of Covalent Cathepsin L Inhibitors” (Journal of Medicinal Chemistry, 2024)
pEC50, pIC50, pKi: −log10 of the molar value. “And” between values parts separate entries of the source, which are not always exact repeats. Equal values may be shown once. Read-outs that look alike come from different tables or passages of the source. Square brackets hold non-standard residues; d marks the D form. Peptide text beside a SMILES is read from it. Nle = CCCC[C@H](N)C(=O)O

Tests used:
CatL [1] = settings: cited from earlier work; for pIC50: Table S1, SI reference list
[2] = test system: SARS-CoV-2-GFP in Vero E6 cells; test: microbe, parasite or virus in culture; type: cell-based
SARS-CoV-2 Mpro = SARS-CoV-2 Mpro (Severe acute respiratory syndrome coronavirus 2, UniProt P0DTD1); type: binding; settings: 2:1 compound to protein
CatL [3] = target: T1, CatL (Homo sapiens, UniProt P07711, T223A); test: NanoDSF, thermal stability of CatL; type: binding; settings: for 2:1, Tm average (CatL): 2:1 compound to protein; for 20:1, Tm average (CatL): 20:1 compound to protein
T1 construct: made in house; host or cells: Komagataella pastoris strain GS115
T1 sequence (P07711 114-333 T223A): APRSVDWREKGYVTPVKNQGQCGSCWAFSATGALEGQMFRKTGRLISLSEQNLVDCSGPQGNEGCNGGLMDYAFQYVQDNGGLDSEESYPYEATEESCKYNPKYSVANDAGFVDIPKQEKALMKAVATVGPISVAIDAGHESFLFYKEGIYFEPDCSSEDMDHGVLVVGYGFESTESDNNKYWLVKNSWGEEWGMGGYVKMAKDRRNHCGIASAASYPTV

CatL [4] = target: T1, CatL; test: CatL inhibition assay (Ki), substrate Z-RR-AMC; type: biochemical
Experimental: (§1) Experiments were performed in a solution of 50 mM sodium acetate, pH 4.0, 50 mM NaCl, 0.1% PEG 6000, and 5 mM DTT. Distinct assays with epoxide inhibitors at pH 6.0 were performed in 50 mM sodium phosphate buffer, 50 mM NaCl, 5 mM DTT, 0.1% PEG 6000, adjusted to pH 6.0.
(§2) M1000 pro plate reader (Tecan), the fluorescent peptide substrate Z-RR-AMC, and excitation and emission wavelengths of 370 and 460 nm, respectively.
(§3) At first, the inhibitor concentration span was optimized for each inhibitor and the assay buffer. For this initial screening, CatL (5 nM) was mixed with different concentrations of inhibitors (1 nM–50 μM) to determine the range of their inhibition. […] Reaction data were fitted to the […] in GraphPad Prism 9 software: Y = bottom + (top – bottom)/(1 + 10^∧((log IC50 – X) × HillSlope)); X is the log of dose or concentration, Y is the response (fluorescence signal), decreasing as X increases, top and bottom are the plateaus in the same units as Y, log IC50 same log units as X, HillSlope is the slope factor or called the Hill slope.

CatL [5] = target: T1, CatL; test: CatL inactivation assay comparing epoxides at pH 6 and pH 4; type: biochemical
Experimental: as §1, §2, §3
Figure S7. Inactivation of CatL.
(1 picture or pasted object on this page, not shown here)

[6] = Cell viability assay (CellTiter-Blue); settings: African green monkey
in vitro = settings: African green monkey
[7] = Severe acute respiratory syndrome coronavirus 2, Vero C1008, 24 h, read-out: EC50 (24 h)
[8] = Severe acute respiratory syndrome coronavirus 2, Vero C1008, 24 h, read-out: EC50 (after 24 h)
[9] = Severe acute respiratory syndrome coronavirus 2, Vero C1008, 48 h, read-out: EC50 (after 48 h)
[10] = Severe acute respiratory syndrome coronavirus 2, Vero C1008, 48 h, read-out: EC50 (48 h)
[11] = read-out: Ki of CatL inhibition

CSCCC(C=O)NC(=O)C(CC(C)C)NC(=O)C(CC(C)C)NC(C)=O (stereo not drawn) [CI-II] (Ac-Leu-Leu-Met-aldehyde; configuration not given here)
pKi (CatL [1]; Sasaki et al., read-out: Ki): 9.22

CC(C)C[C@@H](C=O)NC(=O)[C@@H](NS(=O)(=O)c1ccc(F)cc1)C(C)C [CI-VI, 2-[(4-Fluorophenyl)sulfonylamino]-3-methyl-N-(4-methyl-1-oxopentan-2-yl)butanamide]
pEC50 [2, 7]: 7.42 | pEC50 [2, 8]: 7.42 | pEC50 [2, 9]: 5.87 | 2:1, Tm average (Mpro) (SARS-CoV-2 Mpro): 54.5 °C | pIC50 (CatL [1]): 8.80 | ΔTm [K] for CatL, 2:1 ratio (CatL [3]): 15.2 ± 0.4 K | 2:1, Tm average (CatL) (CatL [3]): 78.3 °C | 20:1, Tm average (CatL) (CatL [3]): 81.4 °C | ΔTm (for CatL), 2:1 compound to protein mixing ratio (CatL [3]; pH 5): 15,2 ± 0,4 °C and 15.2 °C | ΔTm (for CatL), 20:1 compound to protein mixing ratio (CatL [3]; pH 5): 18,3 ± 0,1 °C and 18.3 °C

CC[C@H](C)[C@H](NS(=O)(=O)c1cccc2ccccc12)C(=O)N[C@H](C=O)Cc1c[nH]c2ccccc12 [CLI-IV, 1-Naphthalenesulfonyl-Ile-Trp-aldehyde]
pEC50 [2, 7]: 8.14 | pEC50 [2, 8]: 8.14 | pEC50 [2, 10]: > 6.30 | pEC50 [2, 9]: 6.39 | pEC50 ([2]; read-out: EC50 (24 h)): > 8.00 | remaining activity at 0.00028 µM (CatL [4]; CLI-IV 0.280 nM, read-out: Residual activity (Vi/V0)): 92.4% | remaining activity at 0.0004 µM (CatL [4]; CLI-IV 0.400 nM, read-out: Residual activity (Vi/V0)): 94.2% | remaining activity at 0.00058 µM (CatL [4]; CLI-IV 0.580 nM, read-out: Residual activity (Vi/V0)): 89.3% | remaining activity at 0.00082 µM (CatL [4]; CLI-IV 0.820 nM, read-out: Residual activity (Vi/V0)): 92.1% | remaining activity at 0.00168 µM (CatL [4]; CLI-IV 1.680 nM, read-out: Residual activity (Vi/V0)): 78.4% | remaining activity at 0.0024 µM (CatL [4]; CLI-IV 2.400 nM, read-out: Residual activity (Vi/V0)): 60.1% | remaining activity at 0.00343 µM (CatL [4]; CLI-IV 3.430 nM, read-out: Residual activity (Vi/V0)): 40.4% | remaining activity at 0.007 µM (CatL [4]; CLI-IV 7.000 nM, read-out: Residual activity (Vi/V0)): 11% | remaining activity at 0.01 µM (CatL [4]; CLI-IV 10.000 nM, read-out: Residual activity (Vi/V0)): 5.5% | 2:1, Tm average (Mpro) (SARS-CoV-2 Mpro): 54.6 °C | pIC50 (CatL [1]): 8.72

CN(C)C(=O)C(Cc1ccccc1)NC(=O)[C@H]1O[C@@H]1C(=O)NCCc1ccccn1 (stereo partly drawn) [CLIK148, N-(L-3-trans-(2-pyridin-2-yl-ethylcarbamoyl)-oxirane-2-carbonyl)-L-Phe-dimethylamide]
pEC50 [2, 8]: 6.55 | pEC50 [2, 9]: 5.56 | Inactivation Rate (CatL [5]; CLIK148, pH 4, 0.44 µM (440 nM)): 0.0004006 per second and 0.0003231 per second and 0.0004659 per second | Inactivation Rate (CatL [5]; CLIK148, pH 4, 0.99 µM (990 nM)): 0.0009097 per second and 0.0007894 per second and 0.0009283 per second | Inactivation Rate (CatL [5]; CLIK148, pH 4, 1.48 µM (1480 nM)): 0.00137 per second and 0.001226 per second and 0.001313 per second | Inactivation Rate (CatL [5]; CLIK148, pH 4, 2.22 µM (2220 nM)): 0.001929 per second and 0.00189 per second and 0.001923 per second | Inactivation Rate (CatL [5]; CLIK148, pH 4, 3.33 µM (3330 nM)): 0.00288 per second and 0.002823 per second and 0.002796 per second | Inactivation Rate (CatL [5]; CLIK148, pH 4, 5.00 µM (5000 nM)): 0.004395 per second and 0.004358 per second and 0.004463 per second | Inactivation Rate (CatL [5]; CLIK148, pH 6, 0.44 µM (440 nM)): 0.000984 per second and 0.001005 per second and 0.00104 per second | Inactivation Rate (CatL [5]; CLIK148, pH 6, 0.66 µM (660 nM)): 0.001629 per second and 0.001484 per second and 0.001519 per second | Inactivation Rate (CatL [5]; CLIK148, pH 6, 0.99 µM (990 nM)): 0.002031 per second and 0.002049 per second and 0.002115 per second | Inactivation Rate (CatL [5]; CLIK148, pH 6, 1.48 µM (1480 nM)): 0.002988 per second and 0.003179 per second and 0.003258 per second | Inactivation Rate (CatL [5]; CLIK148, pH 6, 2.22 µM (2220 nM)): 0.004844 per second and 0.004638 per second and 0.004732 per second | Inactivation Rate (CatL [5]; CLIK148, pH 6, 3.33 µM (3330 nM)): 0.00752 per second and 0.006254 per second and 0.007241 per second | Inactivation Rate (CatL [5]; CLIK148, pH 6, 5.00 µM (5000 nM)): 0.01516 per second and 0.01256 per second and 0.01191 per second | 2:1, Tm average (Mpro) (SARS-CoV-2 Mpro): 54.8 °C | ΔTm (for CatL), 2:1 compound to protein mixing ratio (CatL [3]; 5 µM CatL, pH 5.0, 2% DMSO, 2:1): 13,8 ± 0,1 °C and 13.8 °C | ΔTm (for CatL), 20:1 compound to protein mixing ratio (CatL [3]; 5 µM CatL, pH 5.0, 2% DMSO, 20:1): 13,9 ± 0,2 °C and 13.9 °C | 2:1, Tm average (CatL) (CatL [3]): 76.9 °C | 20:1, Tm average (CatL) (CatL [3]): 77 °C | ΔTm [K] for CatL, 2:1 ratio (CatL [3]; Table S1, 2:1 ratio): 13.8 ± 0.1 K | viability at 48 h, 1e-05 µM [6]: 99.3% | viability at 48 h, 0.0001 µM [6]: 100% | viability at 48 h, 0.001 µM [6]: 98% | viability at 48 h, 0.01 µM [6]: 101% | viability at 48 h, 0.1 µM [6]: 98.3% | viability at 48 h, 1 µM [6]: 104% | viability at 48 h, 10 µM [6]: 110%

CCCC[C@@H](C=O)NC(=O)[C@H](CC(C)C)NC(=O)OCc1ccccc1 [Calpeptin]
pKi (CatL [1]; [11]): 9.89 | 2:1, Tm average (CatL) (CatL [3]): 81.8 °C | 20:1, Tm average (CatL) (CatL [3]): 82 °C | viability at 48 h, 1e-05 µM (in vitro): 100% | viability at 48 h, 0.0001 µM (in vitro): 98.4% | viability at 48 h, 0.001 µM (in vitro): 99.3% | viability at 48 h, 0.01 µM (in vitro): 97.9% | viability at 48 h, 0.1 µM (in vitro): 101% | viability at 48 h, 1 µM (in vitro): 101% | viability at 48 h, 10 µM (in vitro): 105%

CC(C)C[C@H](NC(=O)OCc1ccccc1)C(=O)N[C@@H](CC1CCNC1=O)C(O)S(=O)(=O)O (some centres unmarked) [GC-376]
pKi (CatL [1]; [11]): 9.59

CCCC[C@@H](C=O)NC(=O)[C@H](CC(C)C)NC(=O)[C@H](CC(C)C)NC(C)=O [MG101] (Ac-Leu-Leu-[Nle]-aldehyde)
viability at 48 h, 1e-05 µM (in vitro): 103% | viability at 48 h, 0.0001 µM (in vitro): 102% | viability at 48 h, 0.001 µM (in vitro): 102% | viability at 48 h, 0.01 µM (in vitro): 102% | viability at 48 h, 0.1 µM (in vitro): 102% | viability at 48 h, 1 µM (in vitro): 101% | viability at 48 h, 10 µM (in vitro): 63%

CCCC[C@@H](C=O)NC(=O)[C@H](CC(C)C)NC(=O)[C@H](CC(C)C)NC(C)=O [MG-101, Acetyl-Leu-Leu-Nle-aldehyde] (Ac-Leu-Leu-[Nle]-aldehyde)
pEC50 [2, 8]: 8.36 | pEC50 [2, 10]: > 6.30 | pEC50 [2, 9]: 6.70 | pKi (CatL [4]; read-out: Ki): 10.19 | remaining activity at 69 pM (CatL [4]; read-out: Residual activity (Vi/V0), MG-101 0.069 nM): 91.8% | remaining activity at 99 pM (CatL [4]; read-out: Residual activity (Vi/V0), MG-101 0.099 nM): 86.4% | remaining activity at 0.000141 µM (CatL [4]; read-out: Residual activity (Vi/V0), MG-101 0.141 nM): 80.3% | remaining activity at 0.000202 µM (CatL [4]; read-out: Residual activity (Vi/V0), MG-101 0.202 nM): 78.5% | remaining activity at 0.000288 µM (CatL [4]; read-out: Residual activity (Vi/V0), MG-101 0.288 nM): 70.1% | remaining activity at 0.000412 µM (CatL [4]; read-out: Residual activity (Vi/V0), MG-101 0.412 nM): 58.3% | remaining activity at 0.000588 µM (CatL [4]; read-out: Residual activity (Vi/V0), MG-101 0.588 nM): 43.3% | 2:1, Tm average (Mpro) (SARS-CoV-2 Mpro): 60.4 °C | pKi (CatL [1]; read-out: Ki): 9.30
